Laboratory results published in US4003589A, “Carbonless copying paper” (Kureha Kagaku Kogyo Kabushiki Kaisha, priority 1970, dated 1977).

Experiments:
[1] = background; cited from earlier work
Color of the solvent = assay type: physicochemical; settings: Table 2, solvent
Viscosity of the solvent = assay type: physicochemical; settings: 100° F; Table 2
[2] = Acute toxicity (LD50, per oral and cutaneous); assay type: in vivo, Strain ICR-JCL Mice; settings: ICR-JCL mice
Text: Used as test animal are Strain ICR-JCL Mice (Nippon Clea Co., Ltd.)

In the case of `ClC1C(Cl)C(Cl)C(Cl)C(Cl)C1Cl` (centres unmarked) [BHC], the “accumulation in the bodies of many animals” value (from here on “accumulation in the bodies”) [1] is given as “accumulates”.
In the case of `Clc1ccc(C(c2ccc(Cl)cc2)C(Cl)(Cl)Cl)cc1` [DDT], the “accumulation in the bodies” value [1] is listed as “accumulates”.
For butylnaphthalene [Butyl-naphthalene], the Color (Color of the solvent) was “None” and the Viscosity (Viscosity of the solvent) was 4.2 cst.
In the case of diethylnaphthalene [Diethyl-], the Color (Color of the solvent) is reported as “None” and the Viscosity (Viscosity of the solvent) is reported as 3.6 cst.
With “dimethylpropylnaphthalene [Dimethyl propyl]” the Color (Color of the solvent) was “None” and the Viscosity (Viscosity of the solvent) was 5.1 cst.
In the case of dipropylnaphthalene, the Color (Color of the solvent) is reported as “None”, the Viscosity (Viscosity of the solvent) is reported as 8.5 cst and the “LD50 Cutaneous” value [2] is reported as no less than 30 mL/kg. For the same compound, the “LD50 Per Oral” value [2] was 9.5 mL/kg.
In the case of ethylpropylnaphthalene [Ethyl propyl], the Color (Color of the solvent) is reported as “None” and the Viscosity (Viscosity of the solvent) is reported as 5.2 cst.
For methylbutylnaphthalene [Methyl Butyl], the Color (Color of the solvent) was “None” and the Viscosity (Viscosity of the solvent) was 5.0 cst.
In the case of methylpropylnaphthalene [Methyl propyl], the Color (Color of the solvent) is reported as “None” and the Viscosity (Viscosity of the solvent) is reported as 4.0 cst.
For “polychlorobiphenyl [PCB, reference compound]”, the Color (Color of the solvent) is given as “None”, the “accumulation in the bodies” value [1] is given as “accumulates” and the biodegradability [1] is given as “low biodegradability”. For the same compound, the “LD50 Cutaneous” value [2] was 1.25 mL/kg and the “LD50 Per Oral” value [2] was 1.7 mL/kg.
